The text below walks through data of US8188090B2, “Naphthylacetic acids” (Hoffman-La Roche Inc., priority 2008, dated 2012).

One may read the IC50 as the concentration at which inhibition is half-maximal. A higher IC50 goes with lower potency.

This assay deals with T1, human CRTH2 (Homo sapiens, UniProt Q9Y5Y4).
T1 sequence (Q9Y5Y4 1-395): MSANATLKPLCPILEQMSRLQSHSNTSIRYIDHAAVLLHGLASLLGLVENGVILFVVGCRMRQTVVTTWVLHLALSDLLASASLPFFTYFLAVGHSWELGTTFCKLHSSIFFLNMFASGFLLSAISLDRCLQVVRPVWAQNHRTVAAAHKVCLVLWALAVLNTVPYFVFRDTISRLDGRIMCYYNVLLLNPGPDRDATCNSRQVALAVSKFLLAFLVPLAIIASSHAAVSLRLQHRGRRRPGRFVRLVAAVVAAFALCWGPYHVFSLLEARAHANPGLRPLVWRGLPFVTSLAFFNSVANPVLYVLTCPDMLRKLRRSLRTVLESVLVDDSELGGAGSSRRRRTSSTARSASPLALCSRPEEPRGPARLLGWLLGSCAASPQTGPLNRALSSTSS
Nature of the assay: Human CRTH2 Receptor Binding Assay (whole cell, [3H]ramatroban). Further details: expressed in transfected cells; host or cells: CHO-K1. The following applies: whole CHO-K1 cells stably expressing human CRTH2 and G-alpha16; 20 nM [3H]ramatroban; 1 hour, room temperature. The source says: A whole cell receptor binding assay using [^3H]ramatroban as the competing radioactive ligand was employed to evaluate the compound binding activity to human CRTH2. The radioactive ligand [^3H]ramatroban was synthesized according to Sugimoto et. al. (Eur. J. Pharmacol. 524, 30-37, 2005) to a specific activity of 42 Ci/mmol.
A cell line stably expressing human CRTH2 was established by transfecting CHO-K1 cells with two mammalian expression vectors that harbored human CRTH2 and G-alpha16 cDNAs, respectively, using FuGene® 6 transfection reagent (from Roche). Stable clones expressing CRTH2 were selected by staining each clone with BM16 (BD Pharmingen™ from BD Biosciences, a division of Becton, Dickinson and Company), which is a rat monoclonal antibody to human CRTH2. The cells were maintained as monolayer cultures in Ham's F-12 medium containing 10% fetal bovine serum, 100 units/mL penicillin, 100 μg/mL streptomycin, 2 mM glutamine, 0.5 mg/mL G418 (geneticin) for CRTH2, and 0.2 mg/mL hygromycin-B (for G-alpha 16). For whole cell receptor binding assay, the monolayer cells were rinsed once with PBS (phosphate buffered saline), dissociated using ethylenediaminetetraacetate (Versene™ EDTA from Lonza Inc.), and suspended in PBS containing 10 mM MgCl2 and 0.06% BSA (bovine serum albumin) at 1.5×10^6 cells/mL.
The binding reactions (0.2 mL) were performed in 96-well plates at room temperature in PBS containing 1.5×10^5 cells, 10 mM MgCl2, 0.06% BSA, 20 nM [^3H]ramatroban, and test compound at various concentrations. After 1 hour of binding reactions, the cells were harvested on GF™/B filter microplates (microtiter plates with embedded glass fiber from PerkinElmer, Inc.) and washed 5 times with PBS using a Filtermate™ Harvester (a cell harvester that harvests and washes cells from microplates from PerkinElmer, Inc.). The radioactivities bound to the cells were determined using a microplate scintillation counter (TopCount® NXT, from PerkinElmer, Inc.) after adding 50 μL of Microscint™ 20 scintillation fluid (from PerkinElmer, Inc.) to each well of the filter plates. The radioactivity from non-specific binding was determined by replacing compound with 10 μM of 15(R)-15-methyl PGD2 (from Cayman Chemical Company) in the reaction mixtures. The radioactivity bound to the cells in the absence of compound (total binding) was determined by replacing compound with 0.25% of DMSO (dimethyl sulfoxide) in the reaction mixture. Specific binding data were obtained by subtracting the radioactivity of non-specific binding from each binding data.
The IC50 value is defined as the concentration of the tested compound that is required for 50% inhibition of total specific binding. In order to calculate the IC50 value, the percent inhibition data were determined for 7 concentrations for each compound. The percent inhibition for a compound at each concentration was calculated according to the following formula, [1-(specific binding in the presence of compound)/(total specific binding)]×100. The IC50 value was then obtained by fitting the percent inhibition data to a sigmoidal dose-response (4 parameter logistic) model in the XLfit® software Excel add-in program [from ID Business Solutions Ltd., model 205, where F(x)=(A+(B−A)/(1+((C/x)^D)))].
For the molecule `Cc1c(CC(=O)O)cc2ccc(F)cc2c1C(=O)N1CC2(C1)CN(S(=O)(=O)Cc1ccccc1)C2` [Example 1-11, [6-Fluoro-3-methyl-4-(6-phenylmethanesulfonyl-2,6-diaza-spiro[3.3]heptane-2-carbonyl)-naphthalen-2-yl]-acetic acid], the IC50 was 88.3 nM.

On to `Cc1c(CC(=O)O)cc2ccc(F)cc2c1C(=O)N1CCN(S(=O)(=O)C2CCCC2)CC1` [Example 1-8, [4-(4-Cyclopentanesulfonyl-piperazine-1-carbonyl)-6-fluoro-3-methyl-naphthalen-2-yl]-acetic acid], for which the IC50 stood at 6.9 nM.

As for `CC(C)S(=O)(=O)N1CCC(Oc2cc(CC(=O)O)cc3ccc(F)cc23)CC1` [Example 4-3, {6-Fluoro-4-[1-(propane-2-sulfonyl)-piperidin-4-yloxy]-naphthalen-2-yl}-acetic acid], the IC50 stood at 30.5 nM. Compared with the last molecule, the IC50 is about 4.4-fold higher.

Regarding `CC(C)(C)OC(=O)N1CCC(Oc2cc(CC(=O)O)cc3ccc(F)cc23)CC1` [Example 3-1, 4-(3-Carboxymethyl-7-fluoro-naphthalen-1-yloxy)-piperidine-1-carboxylic acid tert-butyl ester], the IC50 was 45.1 nM.

Take `COc1ccc(N2CCN(C(=O)c3c(C)c(CC(=O)O)cc4ccc(F)cc34)CC2)cc1` [Example 2-12, {6-Fluoro-4-[4-(4-methoxy-phenyl)-piperazine-1-carbonyl]-3-methyl-naphthalen-2-yl}-acetic acid]: the IC50 was 106 nM.

In turn, `O=C(O)Cc1cc(OC2CCN(C(=O)c3ccccc3F)CC2)c2cc(F)ccc2c1` [Example 5-7, {6-Fluoro-4-[1-(2-fluoro-benzoyl)-piperidin-4-yloxy]-naphthalen-2-yl}-acetic acid] gave an IC50 of 19.4 nM.

Molecule `Cc1c(CC(=O)O)cc2ccc(F)cc2c1C(=O)N1CCN(c2ccc(Cl)cc2)CC1` [Example 2-18, {4-[4-(4-Chloro-phenyl)-piperazine-1-carbonyl]-6-fluoro-3-methyl-naphthalen-2-yl}-acetic acid] gave a half-inhibitory concentration (IC50) of 9.4 nM.

`O=C(O)Cc1cc(OC2CCN(C(=O)C3CCCC3)CC2)c2cc(F)ccc2c1` [Example 5-5, [4-(1-Cyclopentanecarbonyl-piperidin-4-yloxy)-6-fluoro-naphthalen-2-yl]-acetic acid] showed an IC50 of 53.3 nM.

Turning to `O=C(O)Cc1cc(OC2CCN(S(=O)(=O)c3ccccc3)CC2)c2cc(F)ccc2c1` [Example 4-6, [4-(1-Benzenesulfonyl-piperidin-4-yloxy)-6-fluoro-naphthalen-2-yl]-acetic acid], the IC50 is 3.2 nM.

In turn, `Cc1c(CC(=O)O)cc2ccc(F)cc2c1C(=O)N1CCN(S(=O)(=O)c2ccc(F)cc2)CC1` [Example 1-12, {6-Fluoro-4-[4-(4-fluoro-benzenesulfonyl)-piperazine-1-carbonyl]-3-methyl-naphthalen-2-yl}-acetic acid] showed an IC50 of 8.3 nM.

In turn, `O=C(O)Cc1cc(OC2CCN(C(=O)Nc3ccccc3F)CC2)c2cc(F)ccc2c1` [Example 6-2, {6-Fluoro-4-[1-(2-fluoro-phenylcarbomoyl)-piperidin-4-yloxy]-naphthalen-2-yl}-acetic acid] gave an IC50 of 4.3 nM. Compared with the last molecule, the IC50 is about 1.9-fold lower.

Consider `Cc1c(CC(=O)O)cc2ccc(F)cc2c1C(=O)N1CCN(S(=O)(=O)c2ccccc2)CC1` [Example 1-9, [4-(4-Benzenesulfonyl-piperazine-1-carbonyl)-6-fluoro-3-methyl-naphthalen-2-yl]-acetic acid], for which the IC50 was determined as 3.7 nM. This IC50 and that of the molecule before are within 1.5-fold of each other.

In turn, `CCNC(=O)N1CCC(Oc2cc(CC(=O)O)cc3ccc(F)cc23)CC1` [Example 6-1, [4-(1-Ethylcarbamoyl-piperidin-4-yloxy)-6-fluoro-naphthalen-2-yl]-acetic acid] registered an IC50 of 24.5 nM.

Molecule `Cc1c(CC(=O)O)cc2ccc(F)cc2c1C(=O)N1CCN(S(C)(=O)=O)CC1` [Example 1-3, [6-Fluoro-4-(4-methanesulfonyl-piperazine-1-carbonyl)-3-methyl-naphthalen-2-yl]-acetic acid] yielded an IC50 of 21.2 nM. This IC50 and that of the molecule before are within 1.5-fold of each other.

Turning to `Cc1c(CC(=O)O)cc2ccc(F)cc2c1C(=O)N1CCN(S(=O)(=O)c2ccccc2F)CC1` [Example 1-14, {6-Fluoro-4-[4-(2-fluoro-benzenesulfonyl)-piperazine-1-carbonyl]-3-methyl-naphthalen-2-yl}-acetic acid], the IC50 is 4.8 nM.

`CCCS(=O)(=O)N1CCN(C(=O)c2cc(CC(=O)O)cc3ccc(F)cc23)CC1` [Example 1-7, {6-Fluoro-4-[4-(propane-1-sulfonyl)-piperazine-1-carbonyl]-naphthalen-2-yl}-acetic acid] returned an IC50 of 6.5 nM.

`Cc1c(CC(=O)O)cc2ccc(F)cc2c1C(=O)N1CCN(c2ccc(C#N)cc2)CC1` [Example 2-24, {4-[4-(4-Cyano-phenyl)-piperazine-1-carbonyl]-6-fluoro-3-methyl-naphthalen-2-yl}-acetic acid] came in with an IC50 of 22 nM.

For the molecule `O=C(O)Cc1cc(OC2CCN(C(=O)c3cccc(F)c3)CC2)c2cc(F)ccc2c1` [Example 5-8, {6-Fluoro-4-[1-(3-fluoro-benzoyl)-piperidin-4-yloxy]-naphthalen-2-yl}-acetic acid], the IC50 is 29.8 nM.

`CCS(=O)(=O)N1CCN(C(=O)c2c(C)c(CC(=O)O)cc3ccc(F)cc23)CC1` [Example 1-1, [4-(4-Ethanesulfonyl-piperazine-1-carbonyl)-6-fluoro-3-methyl-naphthalen-2-yl]-acetic acid]: the half-maximal inhibitory concentration (IC50) came to 19.2 nM.

With `Cc1c(CC(=O)O)cc2ccc(F)cc2c1C(=O)N1CCN(S(=O)(=O)C2CC2)CC1` [Example 1-6, [4-(4-Cyclopropanesulfonyl-piperazine-1-carbonyl)-6-fluoro-3-methyl-naphthalen-2-yl]-acetic acid], the IC50 turned out to be 9.1 nM. This IC50 is about 2.1-fold lower than that of the molecule before.

For the molecule `COc1cccc(N2CCN(C(=O)c3c(C)c(CC(=O)O)cc4ccc(F)cc34)CC2)c1` [Example 2-9, {6-Fluoro-4-[4-(3-methoxy-phenyl)-piperazine-1-carbonyl]-3-methyl-naphthalen-2-yl}-acetic acid], the IC50 stood at 63.1 nM.

`Cc1c(CC(=O)O)cc2ccc(F)cc2c1C(=O)N1CCN(c2ccc(F)cc2)CC1` [Example 2-1, {6-Fluoro-4-[4-(4-fluoro-phenyl)-piperazine-1-carbonyl]-3-methyl-naphthalen-2-yl}-acetic acid] returned an IC50 of 18.2 nM.

In the case of `CC(C)C(=O)N1CCC(Oc2cc(CC(=O)O)cc3ccc(F)cc23)CC1` [Example 5-3, [6-Fluoro-4-(1-isobutyryl-piperidin-4-yloxy)-naphthalen-2-yl]-acetic acid], the IC50 stood at 141 nM.

The molecule `O=C(O)Cc1cc(OC2CCN(S(=O)(=O)C3CC3)CC2)c2cc(F)ccc2c1` [Example 4-4, [4-(1-Cyclopropanesulfonyl-piperidin-4-yloxy)-6-fluoro-naphthalen-2-yl]-acetic acid] gave an IC50 of 25.4 nM.

Turning to `Cc1c(CC(=O)O)cc2ccc(F)cc2c1C(=O)N1CCN(S(=O)(=O)c2cccc(F)c2)CC1` [Example 1-16, {6-Fluoro-4-[4-(3-fluoro-benzenesulfonyl)-piperazine-1-carbonyl]-3-methyl-naphthalen-2-yl}-acetic acid], the IC50 worked out at 3.1 nM.

The molecule `O=C(O)Cc1cc(OC2CCN(C(=O)NCCc3ccccc3)CC2)c2cc(F)ccc2c1` [Example 6-5, [6-Fluoro-4-(1-phenethylcarbamoyl-piperidin-4-yloxy)-naphthalen-2-yl]-acetic acid] had an IC50 of 4 nM.
